What was measured:
Settings in all cases: 1 μM inhibitor concentration
[1] = biological target: ERK2 (Homo sapiens (Human), UniProt P28482); experiment: ERK2 kinase selectivity assay; type: biochemical
Description: (§1) MAPK/ERK2 (5-20 mU diluted in 50 mM Tris pH 7.5, 0.1 mM EGTA, 0.1 mM Na3VO4, 0.1% b-mercaptoethanol, 1 mg/ml BSA) is assayed against MBP in a final volume of 25.5 μl in 25 mM Tris pH 7.5, 0.1 mM EGTA, 0.33 mg/ml MBP, 10 mM magnesium acetate and 0.05 mM [33P-g-ATP](500-1000 cpm/pmole) and incubated for 30 min at room temperature. Assays are stopped by addition of 5 μl of 0.5 M (3%) orthophosphoric acid and then harvested onto P81 Unifilter plates with a wash buffer of 50 mM orthophosphoric acid.

[2] = biological target: PRK2 (Homo sapiens (Human), UniProt Q16513); experiment: PRK2 kinase selectivity assay; type: biochemical
PRK2, sequence (Q16513 whole entry, species assumed): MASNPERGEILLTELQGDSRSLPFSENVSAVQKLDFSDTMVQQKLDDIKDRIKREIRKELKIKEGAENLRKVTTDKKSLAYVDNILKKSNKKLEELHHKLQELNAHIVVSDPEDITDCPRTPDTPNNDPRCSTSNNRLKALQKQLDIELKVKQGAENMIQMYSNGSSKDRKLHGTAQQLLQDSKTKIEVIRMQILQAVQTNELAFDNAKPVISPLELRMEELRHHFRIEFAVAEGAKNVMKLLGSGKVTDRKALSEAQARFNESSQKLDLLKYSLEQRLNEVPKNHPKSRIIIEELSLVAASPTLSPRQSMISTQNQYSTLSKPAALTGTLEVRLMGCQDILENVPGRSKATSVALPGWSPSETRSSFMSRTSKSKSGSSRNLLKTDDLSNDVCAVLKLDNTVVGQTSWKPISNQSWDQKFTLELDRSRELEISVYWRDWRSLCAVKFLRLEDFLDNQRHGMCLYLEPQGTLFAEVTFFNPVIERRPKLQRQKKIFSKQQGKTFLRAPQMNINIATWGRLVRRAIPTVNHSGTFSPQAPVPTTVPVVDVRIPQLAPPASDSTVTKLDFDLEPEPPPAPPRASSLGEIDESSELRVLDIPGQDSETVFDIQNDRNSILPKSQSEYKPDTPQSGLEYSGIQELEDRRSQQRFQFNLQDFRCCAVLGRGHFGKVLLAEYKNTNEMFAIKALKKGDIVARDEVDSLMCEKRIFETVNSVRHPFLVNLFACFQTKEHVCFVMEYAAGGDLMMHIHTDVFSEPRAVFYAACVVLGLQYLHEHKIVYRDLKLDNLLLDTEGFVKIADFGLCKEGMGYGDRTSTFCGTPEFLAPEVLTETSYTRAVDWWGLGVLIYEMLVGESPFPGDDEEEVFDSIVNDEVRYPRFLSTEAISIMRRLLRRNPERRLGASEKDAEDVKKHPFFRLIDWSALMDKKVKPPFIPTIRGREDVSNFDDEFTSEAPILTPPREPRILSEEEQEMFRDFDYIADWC
Description: 5-20 mU of PRK2 (diluted in 50 mM Tris (pH 7.5), 0.1 mM EGTA, 1 mg/ml BSA, 0.1%, b-Mercaptoethanol) is assayed against Long S6 peptide ([…]) in a final volume of 25.5 μl containing 50 mM Tris (pH 7.5), 0.1 mM EGTA, 0.1%, b-Mercaptoethanol, 30 μM Long S6 peptide, 10 mM magnesium acetate and 0.005 mM [33P-g-ATP](500-1000 cpm/pmole) and incubated for 30 mins at room temperature. Assays are stopped by addition of 5 μl of 0.5M (3%) orthophosphoric acid. Assays are harvested onto P81 Unifilter plates using a wash buffer of 50 mM orthophosphoric acid.

[3] = biological target: MNK1 (Homo sapiens (Human), UniProt Q9BUB5); experiment: MNK1 kinase selectivity assay; type: biochemical
MNK1, sequence (Q9BUB5 whole entry, species assumed): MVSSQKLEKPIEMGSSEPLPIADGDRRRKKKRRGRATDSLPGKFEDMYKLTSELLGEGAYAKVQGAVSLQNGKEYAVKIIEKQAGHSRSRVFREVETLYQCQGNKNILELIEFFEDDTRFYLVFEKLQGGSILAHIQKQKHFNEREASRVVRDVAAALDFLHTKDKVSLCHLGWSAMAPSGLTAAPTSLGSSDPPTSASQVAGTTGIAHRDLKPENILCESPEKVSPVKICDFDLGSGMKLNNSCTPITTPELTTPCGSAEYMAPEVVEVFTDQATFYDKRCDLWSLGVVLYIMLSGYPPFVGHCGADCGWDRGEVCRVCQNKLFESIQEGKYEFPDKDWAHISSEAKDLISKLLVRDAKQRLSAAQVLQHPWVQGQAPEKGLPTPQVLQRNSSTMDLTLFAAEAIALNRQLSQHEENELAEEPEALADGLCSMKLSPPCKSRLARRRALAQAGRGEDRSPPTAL
Description: 5-20 mU of MNK1 (diluted in 50 mM Tris (pH 7.5), 0.1 mM EGTA, 1 mg/ml BSA, 0.1%, b-Mercaptoethanol) is assayed against substrate peptide (eIF4E) in a final volume of 25.5p1 containing 50 mM Tris (pH 7.5), 0.1 mM EGTA, 0.1%, b-Mercaptoethanol, 0.5 mg/ml substrate peptide, 10 mM magnesium acetate and 0.05 mM [33P-g-ATP](500-1000 cpm/pmole) and incubated for 30 mins at room temperature. Assays are stopped by addition of 5p1 of 0.5M (3%) orthophosphoric acid. Assays are harvested onto P81 Unifilter plates using a wash buffer of 50 mM orthophosphoric acid.

[4] = test system: AMPK(hum); experiment: AMPK kinase selectivity assay; type: biochemical, human
Description: AMPK (5-20 mU diluted in 50 mM Hepes pH 7.5, 1 mM DTT, 0.02% Brij35) is assayed against SAMS substrate peptide ([…]) in a final volume of 25.5 μl containing 50 mM Hepes pH 7.5, 1 mM DTT, 0.02% Brij35, 0.4 mM SAMS peptide, 0.196 mM AMP, 10 mM magnesium acetate and 0.05 mM [33P-g-ATP] (50-1000 cpm/pmole) and incubated for 30 min at room temperature. Assays are stopped by addition of 5 μl of 0.5 M (3%) orthophosphoric acid and then harvested onto P81 Unifilter plates with a wash buffer of 50 mM orthophosphoric acid.

[5] = biological target: MEKK1 (Homo sapiens (Human), UniProt Q13233); experiment: MEKK1 kinase selectivity assay; type: biochemical
MEKK1, sequence (Q13233 whole entry, species assumed): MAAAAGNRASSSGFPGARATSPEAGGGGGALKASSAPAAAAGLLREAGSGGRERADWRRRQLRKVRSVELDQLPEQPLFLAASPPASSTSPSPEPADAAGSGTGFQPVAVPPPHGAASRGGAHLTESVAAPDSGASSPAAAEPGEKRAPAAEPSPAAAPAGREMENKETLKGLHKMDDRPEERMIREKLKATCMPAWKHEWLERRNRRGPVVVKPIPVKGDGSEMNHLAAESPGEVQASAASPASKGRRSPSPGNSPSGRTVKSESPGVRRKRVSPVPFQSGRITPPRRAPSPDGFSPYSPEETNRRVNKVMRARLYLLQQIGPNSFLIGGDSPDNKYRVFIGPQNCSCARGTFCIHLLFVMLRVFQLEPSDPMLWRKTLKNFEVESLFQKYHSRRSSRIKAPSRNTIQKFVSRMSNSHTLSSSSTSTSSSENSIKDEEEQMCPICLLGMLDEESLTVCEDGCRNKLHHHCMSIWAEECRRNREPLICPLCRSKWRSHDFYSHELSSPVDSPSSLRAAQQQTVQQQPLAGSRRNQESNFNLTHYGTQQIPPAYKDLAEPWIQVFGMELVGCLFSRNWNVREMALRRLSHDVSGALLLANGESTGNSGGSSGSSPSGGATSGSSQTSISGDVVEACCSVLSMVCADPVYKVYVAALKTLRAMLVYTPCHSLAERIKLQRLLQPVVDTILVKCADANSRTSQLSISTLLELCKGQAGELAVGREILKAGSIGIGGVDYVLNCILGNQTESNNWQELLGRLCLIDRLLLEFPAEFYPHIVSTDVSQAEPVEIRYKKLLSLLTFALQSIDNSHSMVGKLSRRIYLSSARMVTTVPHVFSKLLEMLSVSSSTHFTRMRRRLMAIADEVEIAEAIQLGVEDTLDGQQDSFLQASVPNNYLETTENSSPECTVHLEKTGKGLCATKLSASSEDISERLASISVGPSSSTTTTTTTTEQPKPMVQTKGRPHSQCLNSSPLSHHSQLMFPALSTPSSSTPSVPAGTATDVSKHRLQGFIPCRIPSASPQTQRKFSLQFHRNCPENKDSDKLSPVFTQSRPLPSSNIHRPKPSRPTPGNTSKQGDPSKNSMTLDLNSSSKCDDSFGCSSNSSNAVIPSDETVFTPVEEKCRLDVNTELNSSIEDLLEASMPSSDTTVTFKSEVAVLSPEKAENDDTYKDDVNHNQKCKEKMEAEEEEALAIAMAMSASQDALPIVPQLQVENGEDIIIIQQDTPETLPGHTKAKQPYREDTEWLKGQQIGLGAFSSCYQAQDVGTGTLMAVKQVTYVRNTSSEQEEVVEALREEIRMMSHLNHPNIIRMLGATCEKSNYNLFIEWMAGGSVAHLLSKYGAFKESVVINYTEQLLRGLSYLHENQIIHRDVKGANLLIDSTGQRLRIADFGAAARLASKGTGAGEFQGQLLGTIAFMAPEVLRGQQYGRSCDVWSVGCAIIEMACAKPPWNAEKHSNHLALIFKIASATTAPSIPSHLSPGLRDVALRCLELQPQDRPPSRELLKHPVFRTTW
Description: as §1, with “MEKK1” for “MAPK/ERK2”, “EGTA,” for “EGTA, 0.1 mM Na3VO4,”, “0-mercaptoethanol,” for “b-mercaptoethanol,”, “containing 50” for “in 25”, “0.02” for “0.05”, “[33P-γ-ATP] (50-1000” for “[33P-g-ATP](500-1000”

[6] = biological target: TTK (Homo sapiens (Human), UniProt P33981); experiment: TTK kinase selectivity assay; type: biochemical
TTK, sequence (P33981 whole entry, species assumed): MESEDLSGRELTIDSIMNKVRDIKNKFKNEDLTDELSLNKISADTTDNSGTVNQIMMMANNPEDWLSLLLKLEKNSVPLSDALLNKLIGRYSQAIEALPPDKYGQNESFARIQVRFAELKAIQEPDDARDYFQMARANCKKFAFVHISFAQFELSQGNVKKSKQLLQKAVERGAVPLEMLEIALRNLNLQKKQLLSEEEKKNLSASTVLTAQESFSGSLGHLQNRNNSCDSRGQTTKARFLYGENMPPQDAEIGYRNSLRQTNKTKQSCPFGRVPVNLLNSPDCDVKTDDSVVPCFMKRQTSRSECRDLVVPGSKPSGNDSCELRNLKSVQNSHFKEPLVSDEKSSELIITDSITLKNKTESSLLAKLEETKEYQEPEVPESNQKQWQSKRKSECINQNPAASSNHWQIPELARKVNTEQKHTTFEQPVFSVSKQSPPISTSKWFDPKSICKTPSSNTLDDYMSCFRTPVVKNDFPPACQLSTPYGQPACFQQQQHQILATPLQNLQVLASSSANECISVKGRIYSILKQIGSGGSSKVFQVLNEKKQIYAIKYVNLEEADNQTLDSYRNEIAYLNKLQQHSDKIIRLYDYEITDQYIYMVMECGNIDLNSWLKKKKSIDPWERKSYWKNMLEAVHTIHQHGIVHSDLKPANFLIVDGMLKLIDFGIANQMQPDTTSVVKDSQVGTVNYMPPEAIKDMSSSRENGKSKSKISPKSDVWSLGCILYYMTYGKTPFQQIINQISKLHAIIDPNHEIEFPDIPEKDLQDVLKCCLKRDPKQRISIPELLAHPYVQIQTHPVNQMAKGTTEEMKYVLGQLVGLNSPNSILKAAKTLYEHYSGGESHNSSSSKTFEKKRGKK
Description: TTK (5-20 mU diluted in 50 mM Tris pH 7.5, 0.1 mM EGTA, 0.1% 0-mercaptoethanol, 1 mg/ml BSA) is assayed against […] in a final volume of […] containing 50 mM Tris pH 7.5, 0.1 mM EGTA, 0.3 mM […], 10 mM magnesium acetate and 0.02 mM [33P-γ-ATP] (50-1000 cpm/pmole) and incubated for 30 min at room temperature. Assays are stopped by addition of 5 μl of 0.5 M (3%) orthophosphoric acid and then harvested onto P81 Unifilter plates with a wash buffer of 50 mM orthophosphoric acid.

[7] = biological target: ULK1 (Homo sapiens (Human), UniProt O75385); experiment: ULK1 kinase selectivity assay; type: biochemical
ULK1, sequence (O75385 whole entry, species assumed): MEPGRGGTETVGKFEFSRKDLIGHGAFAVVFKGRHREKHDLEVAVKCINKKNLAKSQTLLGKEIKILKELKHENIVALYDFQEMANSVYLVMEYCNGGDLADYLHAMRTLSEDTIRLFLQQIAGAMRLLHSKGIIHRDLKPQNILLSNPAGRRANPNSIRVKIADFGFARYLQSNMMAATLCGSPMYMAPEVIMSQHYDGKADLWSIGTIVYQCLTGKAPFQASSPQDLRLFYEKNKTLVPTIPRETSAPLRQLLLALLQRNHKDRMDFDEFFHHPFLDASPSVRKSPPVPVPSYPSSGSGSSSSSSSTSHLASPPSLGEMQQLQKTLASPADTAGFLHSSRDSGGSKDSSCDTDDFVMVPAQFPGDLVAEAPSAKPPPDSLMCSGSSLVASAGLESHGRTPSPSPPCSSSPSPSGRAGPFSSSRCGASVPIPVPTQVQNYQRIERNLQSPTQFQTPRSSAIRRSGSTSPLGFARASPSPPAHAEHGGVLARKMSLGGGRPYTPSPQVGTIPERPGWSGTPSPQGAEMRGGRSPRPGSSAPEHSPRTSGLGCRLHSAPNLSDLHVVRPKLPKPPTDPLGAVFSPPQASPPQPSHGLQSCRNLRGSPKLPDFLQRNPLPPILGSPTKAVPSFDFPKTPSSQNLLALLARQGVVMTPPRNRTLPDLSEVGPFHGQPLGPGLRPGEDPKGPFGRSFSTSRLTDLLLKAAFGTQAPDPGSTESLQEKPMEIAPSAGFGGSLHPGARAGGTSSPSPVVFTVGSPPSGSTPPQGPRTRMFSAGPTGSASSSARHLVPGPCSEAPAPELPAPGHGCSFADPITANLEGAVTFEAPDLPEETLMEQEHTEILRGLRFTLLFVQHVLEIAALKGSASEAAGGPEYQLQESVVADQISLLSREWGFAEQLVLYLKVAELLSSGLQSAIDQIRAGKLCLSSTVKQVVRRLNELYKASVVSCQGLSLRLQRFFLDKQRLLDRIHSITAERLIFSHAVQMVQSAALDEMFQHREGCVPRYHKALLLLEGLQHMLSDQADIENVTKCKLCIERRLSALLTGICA

[8] = biological target: SYK (Homo sapiens (Human), UniProt P43405); experiment: SYK kinase selectivity assay; type: biochemical
Description: (§2) SYK (5-20 mU diluted in 50 mM Tris pH 7.5, 0.1 mM EGTA, 1 mg/ml BSA) is assayed against a substrate peptide (Poly Glut Tyr) in a final volume of 25.5 μl containing 50 mM Tris pH 7.5, 1 mg/ml substrate peptide, 10 mM magnesium acetate and 0.02 mM [33P-g-ATP] (50-1000 cpm/pmole) and incubated for 30 min at room temperature. Assays are stopped by addition of 5 μl of 0.5 M (3%) orthophosphoric acid and then harvested onto P81 Unifilter plates with a wash buffer of 50 mM orthophosphoric acid.

[9] = biological target: EPH-B3 (Homo sapiens (Human), UniProt P54753); experiment: EPH-B3 kinase selectivity assay; type: biochemical
Description: as §2, with “EPH-B3” for “SYK”, “0.005” for “0.02”

## CC(C)n1ncc2c1CN(C1CCN(C)CC1)c1nccc3[nH]nc-2c13 [Example 68]
[1]
  percentage inhibition of ERK2: 11 percentage
[2]
  percentage inhibition of PRK2: 8 percentage
[3]
  percentage inhibition of MNK1: 1 percentage
[4]
  percentage inhibition of AMPK(hum): 32 percentage
[5]
  percentage inhibition of MEKK1: 0 percentage
[6]
  percentage inhibition of TTK: 2 percentage
[7]
  percentage inhibition of ULK1: 30 percentage
[8]
  percentage inhibition of SYK: 1 percentage
[9]
  percentage inhibition of EPH-B3: 5 percentage

## c1cc2[nH]nc3c2c(n1)N(C1CCC1)CCC3 [Example 22, 6-cyclobutyl-6,7,8,9-tetrahydro-2H-1,2,5,6-tetraazabenzo[cd]azulene]
[1]
  percentage inhibition of ERK2: 0 percentage
[2]
  percentage inhibition of PRK2: 2 percentage
[3]
  percentage inhibition of MNK1: 0 percentage
[4]
  percentage inhibition of AMPK(hum): 16 percentage
[5]
  percentage inhibition of MEKK1: 0 percentage
[6]
  percentage inhibition of TTK: 0 percentage
[7]
  percentage inhibition of ULK1: 14 percentage
[8]
  percentage inhibition of SYK: 0 percentage
[9]
  percentage inhibition of EPH-B3: 0 percentage

## c1cc2[nH]nc3c2c(n1)N(C1CCCC1)CCC3 [Example 23, 6-cyclopentyl-6,7,8,9-tetrahydro-2H-1,2,5,6-tetraazabenzo[cd]azulene]
[1]
  percentage inhibition of ERK2: 0 percentage
[2]
  percentage inhibition of PRK2: 0 percentage
[3]
  percentage inhibition of MNK1: 0 percentage
[5]
  percentage inhibition of MEKK1: 0 percentage
[6]
  percentage inhibition of TTK: 0 percentage
[7]
  percentage inhibition of ULK1: 0 percentage
[8]
  percentage inhibition of SYK: 0 percentage
[9]
  percentage inhibition of EPH-B3: 0 percentage

## CN1CCC(N2Cc3ccccc3-c3n[nH]c4ccnc2c34)CC1 [Example 55]
[1]
  percentage inhibition of ERK2: 0 percentage
[2]
  percentage inhibition of PRK2: 0 percentage
[3]
  percentage inhibition of MNK1: 50 percentage
[4]
  percentage inhibition of AMPK(hum): 64 percentage
[5]
  percentage inhibition of MEKK1: 5 percentage
[6]
  percentage inhibition of TTK: 35 percentage
[7]
  percentage inhibition of ULK1: 20 percentage
[8]
  percentage inhibition of SYK: 0 percentage
[9]
  percentage inhibition of EPH-B3: 12 percentage

## c1cc2[nH]nc3c2c(n1)N(C1CCOCC1)CCC3 [Example 29, 6-(tetrahydro-2H-pyran-4-yl)-6,7,8,9-tetrahydro-2H-1,2,5,6-tetraazabenzo[cd]azulene]
[1]
  percentage inhibition of ERK2: 0 percentage
[2]
  percentage inhibition of PRK2: 0 percentage
[3]
  percentage inhibition of MNK1: 0 percentage
[4]
  percentage inhibition of AMPK(hum): 6 percentage
[5]
  percentage inhibition of MEKK1: 0 percentage
[6]
  percentage inhibition of TTK: 2 percentage
[7]
  percentage inhibition of ULK1: 5 percentage
[8]
  percentage inhibition of SYK: 0 percentage
[9]
  percentage inhibition of EPH-B3: 0 percentage
